Test results taken from PubChem BioAssay (NCI).
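1) Cells in 96-well plates. 2) Compound, 48 h, 5 concentrations. 3) Linear interpolation between surrounding doses. 4) Unreached endpoint = highest concentration. Here, GI50 denotes the concentration required for 50% inhibition of growth. At the TGI there is no net growth.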 Activity calls are given as the source filed them. Cut-off read from the data, not from the text of the source: active = GI50 below about 0.43 µM; inactive = the rest.

How the values were obtained:
Assay in all cases: NCI-60 cell line screen, 48 h
[1] = test system: SNB-75 CNS
[2] = test system: OVCAR-3 ovarian
[3] = test system: MCF7 breast
[4] = test system: NCI-H460 lung
[5] = test system: NCI-H23 lung
[6] = test system: M14 melanoma
[7] = test system: UACC-62 melanoma
[8] = test system: CAKI-1 renal
[9] = test system: HT29 colon
[10] = test system: SF-268 CNS
[11] = test system: PC-3 prostate
[12] = test system: OVCAR-4 ovarian
[13] = test system: SK-OV-3 ovarian
[14] = test system: KM12 colon
[15] = test system: SK-MEL-28 melanoma
[16] = test system: TK-10 renal
[17] = test system: HCT-116 colon
[18] = test system: UACC-257 melanoma
[19] = test system: NCI-H522 lung
[20] = test system: OVCAR-5 ovarian
[21] = test system: LOX IMVI melanoma
[22] = test system: MDA-MB-231 breast
[23] = test system: BT-549 breast
[24] = test system: NCI/ADR-RES ovarian
[25] = test system: SF-539 CNS
[26] = test system: CCRF-CEM leukemia
[27] = test system: SNB-19 CNS
[28] = test system: T-47D breast
[29] = test system: U251 CNS
[30] = test system: COLO 205 colon
[31] = test system: ACHN renal
[32] = test system: SW-620 colon
[33] = test system: 786-0 renal
[34] = test system: RXF 393 renal
[35] = test system: A498 renal
[36] = test system: HOP-62 NSCLC
[37] = test system: DU-145 prostate
[38] = test system: SF-295 CNS
[39] = test system: A549 NSCLC
[40] = test system: MALME-3M melanoma
[41] = test system: NCI-H226 lung
[42] = test system: K-562 leukemia
[43] = test system: OVCAR-8 ovarian
[44] = test system: SK-MEL-5 melanoma
[45] = test system: HCT-15 colon
[46] = test system: MOLT-4 leukemia
[47] = test system: SK-MEL-2 melanoma
[48] = test system: IGROV1 ovarian
[49] = test system: MDA-MB-435
[50] = test system: EKVX NSCLC
[51] = test system: UO-31 renal
[52] = test system: HCC-2998 colon
[53] = test system: SR leukemia
[54] = test system: RPMI-8226 leukemia
[55] = test system: HL-60(TB) leukemia

FC(F)(F)c1ccc(C#Cc2ccccc2C#Cc2ccccc2)cc1
GI50 [1]: > 100 µM | TGI [1]: > 100 µM | GI50 [2]: 29.5 µM | TGI [2]: 91.9 µM | GI50 [3]: 22.5 µM | TGI [3]: 89.8 µM | GI50 [4]: 41.1 µM | TGI [4]: > 100 µM | GI50 [5]: 49 µM | TGI [5]: > 100 µM | GI50 [6]: 44.3 µM | TGI [6]: > 100 µM | GI50 [7]: 92.9 µM | TGI [7]: > 100 µM | GI50 [8]: 46.1 µM | TGI [8]: > 100 µM | GI50 [9]: 42.6 µM | TGI [9]: > 100 µM | GI50 [10]: 42.9 µM | TGI [10]: > 100 µM | GI50 [11]: 51.5 µM | TGI [11]: > 100 µM | GI50 [12]: 57.5 µM | TGI [12]: > 100 µM | GI50 [13]: 32.6 µM | TGI [13]: > 100 µM | GI50 [14]: 31.4 µM | TGI [14]: > 100 µM | GI50 [15]: > 100 µM | TGI [15]: > 100 µM | GI50 [16]: 31.7 µM | TGI [16]: > 100 µM | GI50 [17]: 21.6 µM | TGI [17]: > 100 µM | GI50 [18]: 69.5 µM | TGI [18]: > 100 µM | GI50 [19]: 21.4 µM | TGI [19]: 45.4 µM | GI50 [20]: 48.7 µM | TGI [20]: > 100 µM | GI50 [21]: 26.2 µM | TGI [21]: 55.3 µM | GI50 [22]: 26.5 µM | TGI [22]: 62.7 µM | GI50 [23]: > 100 µM | TGI [23]: > 100 µM | GI50 [24]: 62.8 µM | TGI [24]: > 100 µM | GI50 [25]: 41.4 µM | TGI [25]: > 100 µM | GI50 [26]: 26 µM | TGI [26]: 61.6 µM | GI50 [27]: 69.3 µM | TGI [27]: > 100 µM | GI50 [28]: 26.2 µM | TGI [28]: 60.1 µM | GI50 [29]: 27.6 µM | TGI [29]: 81.2 µM | GI50 [30]: 34.3 µM | TGI [30]: > 100 µM | GI50 [31]: 40.9 µM | TGI [31]: > 100 µM | GI50 [32]: 30.6 µM | TGI [32]: > 100 µM | GI50 [33]: 46.1 µM | TGI [33]: > 100 µM | GI50 [34]: 23.4 µM | TGI [34]: 65.6 µM | GI50 [35]: 29.3 µM | TGI [35]: 83.4 µM | GI50 [36]: 52.5 µM | TGI [36]: > 100 µM | GI50 [37]: 48 µM | TGI [37]: > 100 µM | GI50 [38]: 30.3 µM | TGI [38]: > 100 µM | GI50 [39]: 49.9 µM | TGI [39]: > 100 µM | GI50 [40]: 36.3 µM | TGI [40]: > 100 µM | GI50 [41]: 30.1 µM | TGI [41]: 99.9 µM | GI50 [42]: 34.2 µM | TGI [42]: 89.5 µM | GI50 [43]: 59.2 µM | TGI [43]: > 100 µM | GI50 [44]: 32.7 µM | TGI [44]: > 100 µM | GI50 [45]: 35.1 µM | TGI [45]: > 100 µM | GI50 [46]: 35 µM | TGI [46]: 87.2 µM | GI50 [47]: 29.2 µM | TGI [47]: 80 µM | GI50 [48]: > 100 µM | TGI [48]: > 100 µM | GI50 [49]: 35.4 µM | TGI [49]: > 100 µM | GI50 [50]: 33.6 µM | TGI [50]: > 100 µM | GI50 [51]: 49.7 µM | TGI [51]: > 100 µM | GI50 [52]: 32.7 µM | TGI [52]: 53.1 µM

O=c1[nH]c(C2CCCCC2)nc2c(Cl)cccc12
outcome [53]: inactive | outcome [46]: inactive | outcome [54]: inactive

CCOP(=O)(C/C=C\Cn1cnc(C(N)=O)c1N)OCC
GI50 [7]: 25.7 µM | TGI [7]: 75.8 µM

COc1cccc2c1/c(=C/c1ccc(N(C)C)cc1)c1cc(-c3ccccc3)[n+](C)n12
TGI [1]: 0.997 µM | TGI [2]: 1.5 µM | TGI [3]: 1.29 µM | TGI [4]: 0.949 µM | TGI [6]: 1.08 µM | TGI [9]: 0.129 µM | TGI [10]: 1.37 µM | TGI [12]: 3.16 µM | TGI [16]: 1.03 µM | TGI [17]: 0.765 µM | TGI [18]: 0.692 µM | TGI [20]: 1.66 µM | TGI [22]: 2.2 µM | TGI [23]: 0.774 µM | TGI [24]: > 100 µM | TGI [25]: 14.9 µM | TGI [26]: 1.45 µM | TGI [27]: 1.72 µM | TGI [29]: 1.32 µM | TGI [31]: 0.8 µM | TGI [33]: 1.1 µM | TGI [34]: 1.94 µM | TGI [35]: 1.3 µM | TGI [36]: 2.08 µM | TGI [37]: 1.75 µM | TGI [39]: 2.5 µM | TGI [40]: 0.684 µM | TGI [42]: 1.39 µM | TGI [53]: 0.899 µM | TGI [44]: 0.312 µM | TGI [46]: 0.623 µM | TGI [49]: 1.65 µM | TGI [51]: 0.802 µM | TGI [52]: 1.08 µM | TGI [54]: 1.27 µM

NC(N)=N/N=C/c1c(-c2cc([N+](=O)[O-])c(Cl)cc2Cl)nc2sccn12
TGI [8]: 33.7 µM | GI50 [9]: 1.79 µM | TGI [9]: 3.18 µM | TGI [13]: 3.39 µM | TGI [15]: 2.67 µM | GI50 [17]: 0.272 µM | TGI [17]: 1.02 µM | TGI [20]: 3.39 µM | TGI [55]: 4.31 µM | TGI [24]: > 100 µM | GI50 [27]: 0.274 µM | TGI [27]: 56.3 µM | GI50 [30]: 1.38 µM | TGI [30]: 2.84 µM | TGI [33]: 3.11 µM | TGI [36]: 3.44 µM | GI50 [48]: 0.712 µM | TGI [48]: 2.03 µM | TGI [51]: 2.6 µM | GI50 [52]: 1.36 µM | TGI [52]: 2.76 µM
